Series [1] has as its system human donor lenses. The settings on record: ex-vivo; cited from earlier work.
For series [2], the system named is mouse lenses. The note with it: ex-vivo; cited from earlier work.
Series [3] in a line: Solubility profile of LACE. In kind it is physicochemical.
Series [4] can be described thus: Degradation of LACE formulation in storage (HPLC). The format is physicochemical. From the text: An issue that has rendered formulation of LACE problematic has been the propensity to destabilize by ring-opening of the dithiolane linkage to form oxidized species that compromise the activity of the molecule.
Series [5] can be described thus: Osmolality of EV06 compositions adjusted with glycerol. In kind it is physicochemical. As to the method: The requisite osmolality range for drug-containing formulations and placebo is 280-320 mOsm/kg. Preferably, all LACE formulations need to be within 290-310 mOsm/Kg.
A series of placebos was prepared. All placebos, and the LACE-containing solutions that were subsequently prepared, contained the following, with varying amounts of Glycerol: • 0.5% (5 mg/g) Alanine • 0.005% (0.05 mg/g) Benzalkonium Chloride • Small amounts of 1 N Sodium Hydroxide, 1 N Hydrochloric Acid, to adjust pH to 4.5 • Water for Injection (added for final weight)
Target for Total Osmolality was 300 mOsm/kg.
Accordingly, a full series of solutions was prepared with slightly altered target osmolalities for the solutions without LACE, and therefore different target glycerol contents. All solutions were prepared using the same Alanine/Benzalkonium Chloride, pH 4.5 stock solution used in the placebos, so that the final composition was consistently: […]

Series [6] in a line: Solution pH of LACE. The format is physicochemical.
Series [7] in a line: Hygroscopicity of LACE. In kind it is physicochemical.
The nature of series [8]: Log P of LACE. In kind it is physicochemical.
Where [9] appears, read: Applicant's earlier observations.

In the case of `O[C@H](CS)[C@H](O)CS` (racemic) [dithiothreitol (DTT), dithiothreitol], the Lens softening result in series [1] is listed as “lens softening can be induced pharmacologically”.
Take `O=C(O)CCCC[C@@H]1CCSS1` (racemic) [lipoic acid]: in series [2], the Lens softening entry is “lens softening can be induced pharmacologically”.
Usually Log P stands for the decadic logarithm of the partition coefficient of the neutral form, usually between octanol and water. A low value points to a more hydrophilic compound. The compound `C[N+](C)(C)CCOC(=O)CCCC[C@@H]1CCSS1` [LACE, Lipoic acid choline ester] yielded a Solubility in acetonitrile in series [3] (acetonitrile) of more than 4 mg/mL in acetonitrile. This compound also gave a Solubility in water in series [3] (water) of more than 50 mg/mL in water. Moreover, in series [4] (refrigerated temperatures), the Degradation in storage result is “rapid oxidation occurs in storage as early as 1 week”. In series [4] (room temperature), the Degradation in storage entry is “rapidly degrades into oxidized species”. Moreover, in series [5] (setting [9]), the “Additional osmolality for every 1% LACE” value is reported as 44-55 mOsm/kg and the “Additional osmolality for every 1% LACE, average” value amounted to 48 mOsm/kg. Also, the “Effect of LACE on osmolality for every 1%” value in series [5] (from Table 7 series) was 57-60 mOsm/kg. For the same compound, the “Solution pH” value in series [6] is on record as 7-7.5. Also, in series [7], the Hygroscopicity result is given as “Highly hygroscopic”. Moreover, the “Log P” value in series [8] is reported as less than 2.

Source of the values: patent publication US20200375944A1, “LIPOIC ACID CHOLINE ESTER COMPOSITIONS AND METHODS TO GENERATE BIOCOMPATIBLE OPHTHALMIC FORMULATIONS” (ENCORE VISION, INC., priority 2015, published 2020).
